Results on 2 compounds are retold here after US5248604A, “Enzymatically active recombinant human acetylcholinesterase and hosts and vectors for expression thereof” (priority 1991, dated 1993).

The target of series [1] is T1, recombinant human acetylcholinesterase mutant ser/r-met-AChE (serine instead of cysteine at position 611, additional N-terminal methionine); SEQ ID NO:1 numberin (Homo sapiens, UniProt P22303, C611S).
T1 construct: made in house; host or cells: E. coli S.phi.930 harboring pMLF-52ser
T1 sequence (P22303 32-614 C611S): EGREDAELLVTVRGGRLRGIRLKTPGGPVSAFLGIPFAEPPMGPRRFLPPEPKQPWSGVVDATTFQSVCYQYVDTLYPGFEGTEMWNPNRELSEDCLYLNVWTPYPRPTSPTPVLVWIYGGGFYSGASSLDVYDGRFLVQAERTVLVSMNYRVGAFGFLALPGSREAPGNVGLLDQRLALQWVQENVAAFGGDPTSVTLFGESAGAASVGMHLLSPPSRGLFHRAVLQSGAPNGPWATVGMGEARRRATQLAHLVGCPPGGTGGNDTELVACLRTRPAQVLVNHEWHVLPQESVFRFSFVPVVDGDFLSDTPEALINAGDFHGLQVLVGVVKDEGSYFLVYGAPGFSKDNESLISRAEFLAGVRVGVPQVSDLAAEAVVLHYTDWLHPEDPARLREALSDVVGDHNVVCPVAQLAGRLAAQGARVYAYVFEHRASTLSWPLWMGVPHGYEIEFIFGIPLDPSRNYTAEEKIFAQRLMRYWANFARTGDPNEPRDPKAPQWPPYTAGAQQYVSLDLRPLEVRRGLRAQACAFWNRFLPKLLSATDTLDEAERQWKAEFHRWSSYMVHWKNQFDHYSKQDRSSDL
The series is described as follows: Inhibitor specificity: enzyme reacted five minutes with inhibitor, then acetylthiocholine added (Ellman assay). Type of series: biochemical. Conditions: increasing dosages from 0.8×10^-8 M to 0.8×10^-6 M; dose-dependent. How it is done: (§1) AChE activity was assayed by the spectrophotometric method of Ellman using acetylthiocholine as substrate (Ellman, G.L. et al. ([…]) Biochem. Pharm. 7: 88-95)). Acetylthiocholine hydrolysis generates free thiocholine which reacts with Ellman reagent (DTNB) to produce a yellow chromophore. The concentration of the yellow chromophore is determined by the absorption at 412 nm and is proportional to the amount of AChE present. One enzyme unit (U) is the amount of enzyme which hydrolyses 1 μmole of substrate per minute. The extinction coefficient of 1 M chromophore is […]. Specific activity is expressed as U/mg protein.
(§2) The authenticity of the activity of the refolded r-met-AChE and ser/r-met-AChE was verified by testing the refolded protein with two different substrates and a specific inhibitor. Acetylthiocholine (the specific substrate), and butyrylthiocholine (the BuChE substrate), and a specific inhibitor BW-284C51 (see Background of the Invention) were tested to see whether the recombinant enzyme retained the specific characteristics of the naturally-occurring enzyme. The enzyme was assayed with each of the two substrates, or first reacted for five minutes with the specific inhibitor BW-284651 and then the specific substrate was added to the reaction mix. […] Since the butyrylthiocholine was present at a 20-fold higher concentration than acetylthiocholine it is seen that the enzymatic activity towards the butyrylthiocholine is 200-fold less than towards the specific substrate. No activity at all was detected towards the 0.05 mM butyrylthiocholine.

Series [2] concerns the target T2, recombinant human acetylcholinesterase mutant ser/r-met-AChE (serine instead of cysteine at position 611, additional N-terminal methionine; SEQ ID NO:1 numbering) (Homo sapiens, UniProt P22303, C611S).
T2 construct: made in house; host or cells: E. coli S.phi.930 harboring pMLF-52ser
The description is as above. Type of series: biochemical. To be noted: substrate acetylthiocholine, non-purified enzyme. How it is done: as §1, §2

In series [3] the test system is CC(=O)SCC[N+](C)(C)C. The series is described as follows: purified protein, by the assay type. Conditions: other: refolded enzyme; Lineweaver-Burk plot (FIG. 8); pH 8.0.
Protocol: Lineweaver-Burk Plot of ser/r-met-AChE Enzyme kinetics were determined for the mutant rAChE using acetylthiocholine as substrate.
AChE activity was assayed by the spectrophotometric method of Ellman using acetylthiocholine as substrate (Ellman, G.L. et al. (1981) Biochem. Pharm. 7: 88-95)). Acetylthiocholine hydrolysis generates free thiocholine which reacts with Ellman reagent (DTNB) to produce a yellow chromophore. The concentration of the yellow chromophore is determined by the absorption at 412 nm and is proportional to the amount of AChE present. One enzyme unit (U) is the amount of enzyme which hydrolyses 1 μmole of substrate per minute. The extinction coefficient of 1 M chromophore is 13.6×10^4. Specific activity is expressed as U/mg protein.

T2 sequence (P22303 32-614 C611S): as above

A word on the inhibition: it is the relative decrease from the control value, in per cent. Regarding `C=CC[N+](C)(C)c1ccc(CCC(=O)CCc2ccc([N+](C)(C)CC=C)cc2)cc1` [BW284C51], in series [1], the inhibition is recorded as 57%-100%. In series [2] (BW284C51 0.8 × 10^-6 M), the inhibition at 0.8 µM is 100%. For the same compound, the inhibition at 0.08 µM in series [2] (BW284C51 0.8 × 10^-7 M) is 87%. Besides, the inhibition at 0.008 µM in series [2] (BW284C51 0.8 × 10^-8 M) came to 55%.

The Km is the concentration of substrate that gives half-maximal velocity. As for “recombinant human acetylcholinesterase mutant ser/r-met-AChE (serine instead of cysteine at position 611, additional N-terminal methionine; SEQ ID NO:1 numbering) (Homo sapiens; C611S)”, the Km in series [3] was 100 µM.
